Measurements published in patent publication US9969716B2, “Indole derivatives as modulators of methyl modifying enzymes, compositions and uses thereof” (Constellation Pharmaceuticals, Inc., priority 2013, dated 2018).

Legend:
[1] = test system: H3K27me3 mark in HeLa cells; test: H3K27me3 Alpha Hela Assay (AlphaLISA); assay type: cell-based; details: Homo sapiens, 72 hrs, read-out: EZH2_Cell_H3K27me3_Alpha_HeLa (EC50_K27me3)
In short: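 Ten-dose 3-fold series on HeLa cells (1,000/well, 10% DMEM), 72 hrs at 37° C. Lysis, histone extraction, then AlphaLISA with anti-K27me3 acceptor beads, biotinylated anti-H3 C-ter antibody (3 nM final) and streptavidin donor beads (20 μg/mL final); duplicate plate used for viability. DMSO-normalized dose-response curves fitted.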

Y641N EZH2 = Y641N EZH2 (Homo sapiens, UniProt Q15910, Y641N); test: Y641N EZH2 assay (as EZH2 assay, H3K27Me2 oligonucleosomes as substrate); assay type: biochemical
Procedure: EZH2 Assay: Assays were carried out by mixing rPRC2 together with biotinylated oligonucleosome substrates in the presence of the radio-labeled enzyme co-factor, S-adenosyl-L-methionine (^3H SAM) (Perkin Elmer) and monitoring the enzymatically mediated transfer of tritiated methyl groups from ^3H SAM to histone lysine residues. The amount of resulting tritiated methyl histone product was measured by first capturing the biotinylated oligonucleosomes in streptavidin (SAV) coated FlashPlates (Perkin Elmer), followed by a wash step to remove un-reacted ^3H SAM, and then counting on a TopCount NXT 384 well plate scintillation counter (Perkin Elmer). The final assay conditions for EZH2 were as follows: 50 mM Tris Buffer pH 8.5, 1 mM DTT, 69 μM Brij-35 detergent, 5.0 mM MgCl2, 0.1 mg/mL BSA, 0.2 μM ^3H SAM, 0.2 μM biotinylated oligonucleosomes, 3.6 μM H3K27me3 peptide and 2 nM EZH2.
A 12.5 μL volume of the HMT enzyme, H3K27me3 peptide and oligonucleosome substrate in assay buffer was added to each well of the assay plate using a Multidrop Combi (ThermoFisher). Compounds were pre-incubated with the enzyme for 20 min, followed by initiation of the methyltransferase reaction by addition of 12.5 μL of ^3H SAM in assay buffer (final volume=25 μL). The final concentrations of compounds ranged from a top default concentration of 80 μM down to 0.16 μM in ten 2-fold dilution steps. Reactions were carried out for 60 minutes and quenched with 20 μL per well of 1.96 mM SAH, 50 mM Tris pH 8.5, 200 mM EDTA. Stopped reactions were transferred to SAV coated Flashplates (Perkin Elmer), incubated for 120 min, washed with a plate washer, and then read on the TopCount NXT (1.0 min/well) to measure the amount of methyl histone product formed during the reaction.

EZH2 = EZH2 (Homo sapiens, UniProt Q15910); test: EZH2 assay (rPRC2, 3H SAM methyl transfer to biotinylated oligonucleosomes, FlashPlate); assay type: biochemical
In short: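 rPRC2 (2 nM EZH2) with 0.2 μM biotinylated oligonucleosomes, 3.6 μM H3K27me3 peptide, 0.2 μM 3H SAM in pH 8.5 Tris buffer; compounds (80 to 0.16 μM) preincubated 20 min, reaction 60 min, SAH/EDTA quench. Methylated product captured on streptavidin FlashPlates, scintillation counted.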

EZH2, sequence (Q15910 whole entry): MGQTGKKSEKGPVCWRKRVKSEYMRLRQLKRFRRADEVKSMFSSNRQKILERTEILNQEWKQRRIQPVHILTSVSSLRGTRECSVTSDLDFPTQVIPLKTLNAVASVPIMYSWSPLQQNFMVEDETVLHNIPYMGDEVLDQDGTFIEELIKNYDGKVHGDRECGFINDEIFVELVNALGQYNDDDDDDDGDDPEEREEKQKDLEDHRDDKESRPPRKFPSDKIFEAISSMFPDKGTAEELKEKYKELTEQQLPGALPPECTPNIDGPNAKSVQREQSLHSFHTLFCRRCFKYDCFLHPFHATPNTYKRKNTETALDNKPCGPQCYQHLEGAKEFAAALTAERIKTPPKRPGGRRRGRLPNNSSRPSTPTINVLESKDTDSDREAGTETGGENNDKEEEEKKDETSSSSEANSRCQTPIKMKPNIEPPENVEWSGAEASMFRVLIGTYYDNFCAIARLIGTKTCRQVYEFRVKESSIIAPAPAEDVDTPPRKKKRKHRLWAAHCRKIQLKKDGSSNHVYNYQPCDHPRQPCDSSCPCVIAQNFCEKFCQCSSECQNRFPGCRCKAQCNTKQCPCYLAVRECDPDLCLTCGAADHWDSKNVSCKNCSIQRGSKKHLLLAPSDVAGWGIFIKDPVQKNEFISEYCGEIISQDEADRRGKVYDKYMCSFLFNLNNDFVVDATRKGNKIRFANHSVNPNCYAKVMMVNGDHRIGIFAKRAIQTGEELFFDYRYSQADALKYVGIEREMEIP
EZH2, sequence (O75530 whole entry partner): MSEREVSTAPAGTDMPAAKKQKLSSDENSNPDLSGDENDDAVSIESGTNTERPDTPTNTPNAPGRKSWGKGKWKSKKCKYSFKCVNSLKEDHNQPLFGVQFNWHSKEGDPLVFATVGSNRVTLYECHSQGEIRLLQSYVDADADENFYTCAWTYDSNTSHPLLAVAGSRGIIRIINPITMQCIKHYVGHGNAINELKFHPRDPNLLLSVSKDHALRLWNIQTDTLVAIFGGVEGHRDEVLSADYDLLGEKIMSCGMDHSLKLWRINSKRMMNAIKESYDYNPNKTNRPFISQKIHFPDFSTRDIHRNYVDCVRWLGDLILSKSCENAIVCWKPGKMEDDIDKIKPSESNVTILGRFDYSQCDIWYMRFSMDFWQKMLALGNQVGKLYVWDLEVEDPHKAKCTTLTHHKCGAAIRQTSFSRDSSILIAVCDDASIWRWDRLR
EZH2, sequence (Q15022 whole entry partner): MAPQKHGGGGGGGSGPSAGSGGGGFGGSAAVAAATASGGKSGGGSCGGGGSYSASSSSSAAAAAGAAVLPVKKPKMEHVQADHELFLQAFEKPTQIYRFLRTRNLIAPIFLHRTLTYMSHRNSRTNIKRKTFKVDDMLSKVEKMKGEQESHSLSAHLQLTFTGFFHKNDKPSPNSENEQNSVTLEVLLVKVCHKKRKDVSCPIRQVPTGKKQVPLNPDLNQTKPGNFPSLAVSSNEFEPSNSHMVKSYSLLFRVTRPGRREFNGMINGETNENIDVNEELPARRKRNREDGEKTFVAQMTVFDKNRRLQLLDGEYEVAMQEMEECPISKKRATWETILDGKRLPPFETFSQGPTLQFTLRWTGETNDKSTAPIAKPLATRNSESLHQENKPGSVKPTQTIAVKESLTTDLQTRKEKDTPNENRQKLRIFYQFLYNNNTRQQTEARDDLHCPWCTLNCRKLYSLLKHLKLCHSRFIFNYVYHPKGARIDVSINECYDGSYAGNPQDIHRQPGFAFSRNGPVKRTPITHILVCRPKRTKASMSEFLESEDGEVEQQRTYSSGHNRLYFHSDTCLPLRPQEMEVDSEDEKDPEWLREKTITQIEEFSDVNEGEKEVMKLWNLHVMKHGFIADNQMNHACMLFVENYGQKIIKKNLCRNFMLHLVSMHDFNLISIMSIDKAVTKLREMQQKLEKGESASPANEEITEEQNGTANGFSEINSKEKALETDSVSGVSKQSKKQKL
Y641N EZH2, sequence (Q15910 whole entry Y641N): as the sequence (Q15910 whole entry) above, with Y641N counted along it
Y641N EZH2, sequence (O75530 whole entry partner): as the sequence (O75530 whole entry partner) above
Y641N EZH2, sequence (Q15022 whole entry partner): as the sequence (Q15022 whole entry partner) above

| SMILES | EC50 [1] [nM] | IC50 (Y641N EZH2) [nM] | IC50 (EZH2) [nM] |
| --- | --- | --- | --- |
| COc1cc(C)[nH]c(=O)c1CNC(=O)c1c(C)n([C@H](C)C2CCN(c3ncc(Cl)cn3)CC2)c2ccccc12 [Compound 130] | < 400 | < 100 | < 100 |
| COc1cc(C)[nH]c(=O)c1CNC(=O)c1c(C)n([C@H](C)C2CCN(c3ccc(F)cn3)CC2)c2ccccc12 [Compound 131] | < 400 | < 100 | < 100 |
| COc1cc(C)[nH]c(=O)c1CNC(=O)c1c(C)n([C@H](C)C2CCN(c3ccc(C)nc3)CC2)c2ccccc12 [Compound 133] | < 400 | < 100 | < 100 |
| Cc1cc(C)c(CNC(=O)c2c(C)n([C@H](C)C3CCN(S(=O)(=O)CCN4CCOCC4)CC3)c3ccccc23)c(=O)[nH]1 [Compound 134] | < 400 | < 100 | < 100 |
| COc1cc(C)[nH]c(=O)c1CNC(=O)c1c(C)n([C@H](C)C2CCN(CC(C)(C)C(F)(F)F)CC2)c2ccccc12 [Compound 136] | < 400 | 100 to 1000 | 100 to 1000 |
| COc1cc(C)[nH]c(=O)c1CNC(=O)c1c(C)n([C@H](C)C2CCN(S(=O)(=O)c3ccc(F)cc3)CC2)c2ccccc12 [Compound 137] | < 400 | < 100 | < 100 |
| COc1cc(C)[nH]c(=O)c1CNC(=O)c1c(C)n([C@H](C)C2CCN(S(=O)(=O)c3ccccc3)CC2)c2ccccc12 [Compound 138] | < 400 | < 100 | < 100 |
| Cc1cc(C)c(CNC(=O)c2c(C)n([C@H](C)C3CCN(S(=O)(=O)C4CCN(C)CC4)CC3)c3ccccc23)c(=O)[nH]1 [Compound 139] | < 400 | < 100 | < 100 |
| COCCOCCOC(=O)N1CCC([C@@H](C)n2c(C)c(C(=O)NCc3c(OC)cc(C)[nH]c3=O)c3ccccc32)CC1 [Compound 140] | < 400 | < 100 | < 100 |
| COc1cc(C)[nH]c(=O)c1CNC(=O)c1c(C)n([C@H](C)C2CCN(c3ccc(F)cc3)CC2)c2ccccc12 [Compound 141] | < 400 | < 100 | < 100 |
| Cc1cc(Cl)c(CNC(=O)c2c(C)n([C@H](C)C3CCN(CC(C)(C)O)CC3)c3ccccc23)c(=O)[nH]1 [Compound 142] | < 400 | < 100 | < 100 |
| Cc1cc(OC(F)F)c(CNC(=O)c2c(C)n([C@H](C)C3CCN(CCC(F)(F)F)CC3)c3ccccc23)c(=O)[nH]1 [Compound 143] | < 400 | < 100 | < 100 |
| Cc1cc(C)c(CNC(=O)c2c(C)n([C@H](C)C3CCN(c4cccc(CN5CCOCC5)c4)CC3)c3ccccc23)c(=O)[nH]1 [Compound 144] | 400 to 2000 | < 100 | < 100 |
| COc1cc(C)[nH]c(=O)c1CNC(=O)c1c(C)n([C@H](C)C2CCN(CC3CC3)CC2)c2ccccc12 [Compound 145] | 400 to 2000 | < 100 | < 100 |
| CNc1cc(C)[nH]c(=O)c1CNC(=O)c1c(C)n([C@H](C)C2CCN(c3ncc(F)cn3)CC2)c2ccccc12 [Compound 146] | 400 to 2000 | < 100 | < 100 |
| Cc1cc(C)c(CNC(=O)c2c(C)n([C@H](C)C3CCN(S(=O)(=O)C4CN(C)C4)CC3)c3ccccc23)c(=O)[nH]1 [Compound 147] | 400 to 2000 | < 100 | < 100 |
| COc1cc(C)[nH]c(=O)c1CNC(=O)c1c(C)n([C@H](C)C2CCN(Cc3ccccn3)CC2)c2ccccc12 [Compound 148] | 400 to 2000 | < 100 | < 100 |
| COc1cc(C)[nH]c(=O)c1CNC(=O)c1c(C)n([C@H](C)C2CCN(c3cnccn3)CC2)c2ccccc12 [Compound 149] | 400 to 2000 | < 100 | < 100 |

| SMILES | EC50 [1] [nM] | IC50 (Y641N EZH2) [nM] | IC50 (EZH2) [nM] |
| --- | --- | --- | --- |
| COc1cc(C)[nH]c(=O)c1CNC(=O)c1c(C)n([C@H](C)C2CCN(Cc3c(F)cccc3F)CC2)c2ccccc12 [Compound 150] | 400 to 2000 | < 100 | < 100 |
| CCc1cc(C)[nH]c(=O)c1CNC(=O)c1c(C)n([C@H](C)C2CCN(CCC(F)(F)F)CC2)c2ccccc12 [Compound 151] | 400 to 2000 | < 100 | < 100 |
| COc1cc(C)[nH]c(=O)c1CNC(=O)c1c(C)n([C@H](C)C2CCN(CCCC(F)(F)F)CC2)c2ccccc12 [Compound 152] | 400 to 2000 | < 100 | < 100 |
| COc1cc(C)[nH]c(=O)c1CNC(=O)c1c(C)n([C@H](C)C2CCN(C(=O)c3ccccc3)CC2)c2ccccc12 [Compound 153] | 400 to 2000 | < 100 | < 100 |
| COc1cc(C)[nH]c(=O)c1CNC(=O)c1c(C)n([C@H](C)C2CCN(c3ccc(Cl)cc3)CC2)c2ccccc12 [Compound 154] | 400 to 2000 | < 100 | < 100 |
| CNc1cc(C)[nH]c(=O)c1CNC(=O)c1c(C)n([C@H](C)C2CCN(CCC(F)(F)F)CC2)c2ccccc12 [Compound 155] | 400 to 2000 | < 100 | < 100 |
| COc1cc(C)[nH]c(=O)c1CNC(=O)c1c(C)n([C@H](C)C2CCN(C[C@H](O)C(F)(F)F)CC2)c2ccccc12 [Compound 156] | 400 to 2000 | < 100 | < 100 |
| COc1cc(C)[nH]c(=O)c1CNC(=O)c1c(C)n([C@H](C)C2CCN(C(=O)C3CC3)CC2)c2ccccc12 [Compound 157] | 400 to 2000 | < 100 | < 100 |
| COc1cc(C)[nH]c(=O)c1CNC(=O)c1c(C)n([C@H](C)C2CCN(C(=O)N(C)C)CC2)c2ccccc12 [Compound 158] | 400 to 2000 | < 100 | < 100 |
| Cc1cc(C)c(CNC(=O)c2c(C)n([C@H](C)C3CCN(c4ccc(CN5CCOCC5)cn4)CC3)c3ccccc23)c(=O)[nH]1 [Compound 159] | 400 to 2000 | < 100 | < 100 |
| Cc1cc(C)c(CNC(=O)c2c(C)n([C@H](C)C3CCN(c4ccc(CN5CCOCC5)cc4)CC3)c3ccccc23)c(=O)[nH]1 [Compound 160] | 400 to 2000 | < 100 | < 100 |
| Cc1cc(C)c(CNC(=O)c2c(C)n([C@H](C)C3CCN(S(=O)(=O)CCN4CCCC4)CC3)c3ccccc23)c(=O)[nH]1 [Compound 161] | 400 to 2000 | < 100 | < 100 |
| Cc1cc(C)c(CNC(=O)c2c(C)n([C@H](C)C3CCN(C(=O)N4CCN(C)CC4)CC3)c3ccccc23)c(=O)[nH]1 [Compound 162] | 400 to 2000 | < 100 | < 100 |
| COc1cc(C)[nH]c(=O)c1CNC(=O)c1c(C)n([C@H](C)C2CCN(c3ccncn3)CC2)c2ccccc12 [Compound 164] | > 2000 | < 100 | < 100 |
| COCCOCCOCCOCCOCCOCCOC(=O)N1CCC([C@@H](C)n2c(C)c(C(=O)NCc3c(OC)cc(C)[nH]c3=O)c3ccccc32)CC1 [Compound 165] | > 2000 | 100 to 1000 | < 100 |
| COc1cc(C)[nH]c(=O)c1CNC(=O)c1c(C)n([C@H](C)C2CCN(C(CF)CF)CC2)c2ccccc12 [Compound 166] | > 2000 | < 100 | < 100 |
| COc1cc(C)[nH]c(=O)c1CNC(=O)c1c(C)n([C@H](C)C2CCN(C(=O)N3CCOCC3)CC2)c2ccccc12 [Compound 167] | > 2000 | < 100 | < 100 |
| CCN(CC)C(=O)CN1CCC([C@@H](C)n2c(C)c(C(=O)NCc3c(OC)cc(C)[nH]c3=O)c3ccccc32)CC1 [Compound 168] | > 2000 | < 100 | < 100 |
